Experimental data as given in EP1637537A1, “New medicaments” (Riemser Arzneimittel AG, priority 2004, dated 2006).

Assays:
[1] = Serum/plasma concentration-time profile after oral dosing in volunteers; format: in vivo, männliche und weiblichen Probanden
Protocol: Die Studie wurde an 12 männliche und weiblichen Probanden im Alter zwischen 18 und 45 Jahren durchgeführt. Der Wirkstoff (Methantheliniumbromid) wurden oral als Filmtablette oder als Lösung appliziert. Zu unterschiedlichen Zeiten nach der Dosierung wurden Messungen vorgenommen und Laborwerte zur Charakterisierung der Wirkung festgestellt.
Im Beispiel wurden 100 mg Wirkstoff als Filmtablette der folgenden Formulierung eingesetzt: • ◆ 50,0 mg Methantheliniumbromid • ◆ 30,0 mg Maisstärke • ◆ 18,75 mg Polyvinylprrolidon • ◆ 4,0 mg hochdisperses Siliziumdioxid • ◆ 146,25 mg Lactosemonohydrat • ◆ 1,0 mg Magnesiumsterarat • ◆ 1,0 mg Hydroxypropylmethylcellulose • ◆ 39,38 mg Talcum • ◆ 6,5 mg Gummi arabicum • ◆ 15,53 mg Calciumcarbonat • ◆ 7,73 mg Titandioxid • ◆ 6,58 mg Weißer Ton • ◆ 0,65 mg Macogol 6000 • ◆ 61,63 mg Saccharose • ◆ 1,0 mg E 100 • ◆ 0,1 mg Carnauba Wachs
Es ist auch möglich, eine reine Lösung von 100 mg Methantheliniumbromid in Wasser als Frischlösung herzustellen. Dabei empfiehlt es sich, den bitteren Geschmack des Wirkstoffes durch angenehme Geschmackskorrigentien zu überdecken. Hier bieten sich z. B. einige Spritzer eines Mundwassers mit Pfefferminzgeschmack an.
Ausdruck dafür ist das in der Figur 1 dargestellte Konzentrations-Zeit-Profil. Zu beachten ist eine deutliche individuelle Schwankungsbreite in der Serumkonzentration nach Zuführung beider Applikationsformen. […]

Würgereiz = test: Gag reflex inhibition after gag stimulus, clinical study; format: in vivo, männlichen und weiblichen gesunden Probanden; conditions: oral 100 mg as Vagantin® film tablet or fresh solution; tested immediately after application and 1, 2 and 6 hours later (Figur 2)
Protocol: (§1) In einer klinischen Studie an 10 männlichen und weiblichen gesunden Probanden im Alter zwischen 20 und 60 Jahren wurde die Ausschaltung bzw. Verzögerung des Würgereizes und der Verminderung des Speichelflusses bei ärztlichen oder zahnärztlichen Manipulationen im Rachenraum geprüft.
(§2) Die obengenannte Filmtablettenformulierung bzw. die dort genannte Lösung von 100 mg Methantheliniumbromid in Wasser als Frischlösung wurde auch hier verwendet.
(§3) Nach Würgereizstimulus wurde die Würgereflexhemmung unmittelbar nach Applikation, sowie im Abstand von 1, 2 und 6 Stunden danach geprüft. Gleichzeitig wurde die Speichelflußrate vor und nach Einnahme von Methantheliniumbromid in Form von Vagantin® gemessen. […] Die Ergebnisse sind in den Figuren. 2 und 3 dargestellt.

Speichelfluß = test: Saliva flow rate before and after intake, clinical study; format: in vivo, männlichen und weiblichen gesunden Probanden; conditions: oral 100 mg as Vagantin®; before and after intake (Figur 3)
Protocol: as §1, §2, §3
Figur 3 zeigt die Speichelsekretion in Abhängigkeit von der Methanthelinkonzentration im Plasma nach oraler Gabe von 100 mg Wirkstoff an gesunde Freiwillige. Ferner kann von einem Methanthelinbromidgehalt im Plasma von etwa 5 ng/ml über einen Zweitraum von 8 Stunden ausgegangen werden (Figur 1).

- concentration at 8 h ([1]; human, plasma, oral, 100 mg, over a period of 8 hours (Figur 1), read-out: Methanthelinbromidgehalt im Plasma): ~5 ng/mL
SMILES: CC[N+](C)(CC)CCOC(=O)C1c2ccccc2Oc2ccccc21.[Br-] [Methantheliniumbromid, N,N-Diethyl-N-methyl-2-(xanthenylcarbonyloxy)ethylammoniumbromid]
- Reaktion (Konzentrations-Zeit-Profil, Serumkonzentration) ([1]; oral drinking solution compared with film tablet, 100 mg (Figur 1)): etwas stärkere Reaktion als die Filmtablette
- Würgereflexhemmung (Würgereiz): deutliche Verzögerung des Würgereizesreflexes
- Speichelflußrate (Speichelfluß): deutliche Reduzierung des Speichelflusses
